Reference: US8999419B2, “Enhancement of potato tuber sprouting inhibitors using various combinations of agents” (Washington State University, priority 2010, dated 2015)

What was measured:
[1] = test system: Russet Burbank potato tubers; experiment: Sprout-free interval after CIPC and trans-2-nonenal, alone or in sequence; assay type: in vivo; conditions: CIPC 20 mg/kg; T2N 0.75 mmol/kg; applied at 151 DAH; tubers stored at 9° C.
Protocol: FIGS. 2A and B. Treatment with combination of T2N and CIPC. A, sprout growth in “Russet Burbank” tubers treated as indicated with CIPC, trans-2-nonenal, or trans-2-nonenal and CIPC in sequence; fresh weight of sprouts (g/tuber) at the indicated time points. CIPC, 20 mg/kg; T2N, 0.75 mmol/kg; B, photo of tubers.
Following the emergence of Russet Burbank potato tubers from dormancy, CIPC and trans-2-nonenal were applied either alone or sequentially as indicated in FIG. 2A. All treatments were applied at 151 days after harvest (DAH). Sprout control was considered to end when one third of the tubers in the sample produced a sprout mass of greater than 50 mg/tuber or when the mean of the total sample exceeded 1 g/tuber. When both CIPC and trans-2-nonenal were used, the sprout-free interval of the tubers stored at 9° C. […] In this study, the application of CIPC was unconventional in that it occurred when tubers were beginning to sprout, as opposed to the window between wound healing and sprouting. CIPC provided additional sprout control on tubers whose actively growing sprouts were initially terminated by trans-2-nonenal, i.e. when used in combination with trans-2-nonenal. Trans-2-nonenal thus expands the window of opportunity for application of CIPC and this invention can therefore be useful to reduce the application rate and residues of CIPC.

'Ranger Russet' tubers [2] = experiment: Days to average sprout length of 10 mm, 3-decen-2-one followed by CIPC; assay type: in vivo, potato
Protocol: The study used CIPC to extend the sprout-free period following an application of 3-decen-2-one or 2-decanone after sprouting occurs. Protocol.
(§1) This study, as described, used 3-decen-2-one (3D2). The study was duplicated as described with 2-decanone in place of 3D2. Tubers were stored at 9° C. until they emerged from dormancy (when 75% of the sample tubers are peeping, and the longest sprouts are no longer than 4 mm). At this time, 3-decen-2-one was applied at 0.75, 0.50, or 0.25 mmol/kg to ‘burn off’ growing sprouts. Each of these treatments was followed by applications of 1, 0.73, 0.47 or 0.20% a.i. of CIPC EC. The label rate of CIPC EC is 1% a.i. and results in a 10 mg/kg fresh wt application when applied as directed. Sprout measurements were obtained every two weeks. The length of the longest sprout on each tuber was recorded. The average length of the longest sprout was plotted over time for each treatment combination. The days to 10 mm were estimated from the second linear regression line of each element. Positive control treatments included the three rates of 3D2 alone and four post-sprouting concentrations of CIPC alone. The standard control treatment consisted of non-treated tubers.

Russet Burbank tubers = experiment: Sprout fresh weight after 24 h chamber treatment with 3N2 and 2-nonanone mixtures; assay type: in vivo, potato; conditions: treated 24 h, 21 days at 22° C.
Protocol: FIG. 1. Effects of 3-nonen-2-one (3N2) in various combinations with 2-nonanone on sprouting of Russet Burbank tubers. The compounds were applied as described in Example 1. Tubers were treated for 24 h, removed from treatment chambers, and placed at 22° C. to sprout for 3 weeks. Sprout fresh weight is expressed as a percentage of control (non-treated), which were 100% sprouted.
The objective of this study was to determine the efficacy of mixtures of 3N2 and its metabolite, 2-nonanone, on sprout inhibition. Potato tubers were treated for 24 h in a closed chamber. The chemicals were volatilized from filter paper inside the chamber. Treatment was with 0 to 0.75 mmol/kg of 3N2 combined factorially with 0 to 0.75 mmol/kg of 2-nonanone. The treated tubers were placed at 22° C. and sprout fresh weights were measured 21 days after treatment. Sprout growth from tubers treated with 0.5 and 0.75 mmol/kg 2-nonanone averaged 58% of non-treated tubers, compared with 9% for […] applied alone (FIG. 1).

'Ranger Russet' tubers [3] = experiment: Days to average sprout length of 10 mm, 2-decanone followed by CIPC; assay type: in vivo, potato
Protocol: as §1

[4] = 116 mg kg-1 rate, no subsequent treatment with CIPC

For CCCCCC/C=C/C=O [trans-2-nonenal], which Sprout-free interval [1] is on record?
The Sprout-free interval was 155 days.

How did the “Control before sprouting re-occurred” value ('Ranger Russet' tubers [2]; 0.25 mmol/kg rate) turn out when CCCCCCC=CC(C)=O [3D2, 3-decen-2-one] was run?
The value was “approximately 1 month”.

What about the “Days of control following application” value ('Ranger Russet' tubers [2]; [4]) of the same compound?
Its value is 58 days.

What about the “Days to 10 mm Actual” value ('Ranger Russet' tubers [2]; 3D2 39 mg kg-1 fresh wt alone (CIPC 0)) of the same compound?
The value was 38 days.

And the “Days to 10 mm Actual” value ('Ranger Russet' tubers [2]; 3D2 77 mg kg-1 fresh wt alone (CIPC 0))?
Its value is 40 days.

And the “Days to 10 mm Actual” value ('Ranger Russet' tubers [2]; 3D2 116 mg kg-1 fresh wt alone (CIPC 0))?
Its value is 57 days.

How did the “Sprout growth (fresh weight) as percentage of non-treated tubers” value (Russet Burbank tubers; 0.75% 3N2 applied alone) turn out when CCCCCC=CC(C)=O [3N2, 3-nonen-2-one] was run?
The value was 9%.

CC(C)OC(=O)Nc1cccc(Cl)c1 [CIPC, chlorpropham, reference compound] was tested. Which Sprout-free interval [1] did it give?
Its Sprout-free interval is 124 days.

What about the “Days to 10 mm Actual” value ('Ranger Russet' tubers [2]; CIPC 2.0 mg kg-1 fresh wt alone (3D2 0), Table 1 study) of the same compound?
The value was 51 days.

What about the “Days to 10 mm Actual” value ('Ranger Russet' tubers [2]; CIPC 4.7 mg kg-1 fresh wt alone (3D2 0), Table 1 study) of the same compound?
Its value is 80 days.

What about the “Days to 10 mm Actual” value ('Ranger Russet' tubers [2]; CIPC 7.3 mg kg-1 fresh wt alone (3D2 0), Table 1 study) of the same compound?
Its value is 99 days.

And the “Days to 10 mm Actual” value ('Ranger Russet' tubers [2]; CIPC 10 mg kg-1 fresh wt alone (3D2 0), Table 1 study)?
The value was 95 days.

And the “Days to 10 mm Actual” value ('Ranger Russet' tubers [3]; CIPC 2.0 mg kg-1 fresh wt alone (2-decanone 0), Table 2 study)?
The value was 85 days.

And the “Days to 10 mm Actual” value ('Ranger Russet' tubers [3]; CIPC 4.7 mg kg-1 fresh wt alone (2-decanone 0), Table 2 study)?
Its value is 113 days.

What about the “Days to 10 mm Actual” value ('Ranger Russet' tubers [3]; CIPC 7.3 mg kg-1 fresh wt alone (2-decanone 0), Table 2 study) of the same compound?
The value was 110 days.

And the “Days to 10 mm Actual” value ('Ranger Russet' tubers [3]; CIPC 10 mg kg-1 fresh wt alone (2-decanone 0), Table 2 study)?
The value was 112 days.

How did the “Sprout growth (fresh weight) as percentage of non-treated tubers” value (Russet Burbank tubers; 0.5 and 0.75 mmol/kg 2-nonanone, averaged) turn out when CCCCCCCC(C)=O [2-nonanone] was run?
The value was 58%.

For CCCCCCCCC(C)=O [2-decanone], which “Control before sprouting re-occurred” value ('Ranger Russet' tubers [3]; 0.25 mmol/kg rate) is on record?
The value was “approximately 1 month”.

And the “Days of control following application” value ('Ranger Russet' tubers [3]; [4])?
Its value is 50 days.

What about the “Days to 10 mm Actual” value ('Ranger Russet' tubers [3]; 2-decanone 39 mg kg-1 fresh wt alone (CIPC 0)) of the same compound?
Its value is 34 days.

And the “Days to 10 mm Actual” value ('Ranger Russet' tubers [3]; 2-decanone 77 mg kg-1 fresh wt alone (CIPC 0))?
Its value is 42 days.

What about the “Days to 10 mm Actual” value ('Ranger Russet' tubers [3]; 2-decanone 116 mg kg-1 fresh wt alone (CIPC 0)) of the same compound?
The value was 49 days.
